How the values were obtained:
Assay in all cases: cell viability relative to untreated control (ex vivo patient spheroids); higher = less cytotoxic
Details in all cases: 72 h
Gem105 = tested on: Gem105 (ex vivo spheroids of an HRD-negative high-grade serous ovarian cancer)
Experimental: (§1)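 Ex vivo 3D spheroid cultures from dissociated tumours of HGSOC patients (DET3CT platform) were treated for 72 h with dose matrices of carboplatin combined with birinapant or vorinostat (nM). Live (TMRM) and dead (POPO-1) cells were imaged and viability was expressed as % of untreated control.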

Gem031 = tested on: Gem031 (ex vivo spheroids of an HRD-negative high-grade serous ovarian cancer)
Experimental: as §1

Gem015 = tested on: Gem015 (ex vivo spheroids of an HRD-positive high-grade serous ovarian cancer)
Experimental: as §1

O=C(O)C1(C(=O)O)CCC1.[NH2-].[NH2-].[Pt+2] [Carboplatin] + CC[C@H](NC(=O)[C@H](C)NC)C(=O)N1C[C@@H](O)C[C@H]1Cc1c(-c2[nH]c3cc(F)ccc3c2C[C@@H]2C[C@H](O)CN2C(=O)[C@H](CC)NC(=O)[C@H](C)NC)[nH]c2cc(F)ccc12 [Birinapant]
cell viability [%]
Details	partner drug concentration 0 nM	partner drug concentration 0.1 nM	partner drug concentration 1 nM	partner drug concentration 10 nM	partner drug concentration 100 nM	partner drug concentration 1000 nM
Gem015, carboplatin concentration 10 nM	–	100	93.1	93.5	82	55.1
Gem015, carboplatin concentration 100 nM	–	98.5	90	101	77	67.2
Gem015, carboplatin concentration 1000 nM	–	103	89.1	81.6	85.2	59.3
Gem015, carboplatin concentration 10000 nM	91.1	73.5	97.6	89.5	84.6	59
Gem015, carboplatin concentration 100000 nM	61.2	58.2	75.8	73.6	58.7	39.9
Gem031, carboplatin concentration 10 nM	–	93	91.2	96	55.3	25.3
Gem031, carboplatin concentration 100 nM	–	98.1	92.1	88.6	61.2	26.3
Gem031, carboplatin concentration 1000 nM	–	98.6	91.8	93.6	56.8	24.8
Gem031, carboplatin concentration 10000 nM	79.2	87	97.5	77.6	46.3	15.5
Gem031, carboplatin concentration 100000 nM	26.3	26.1	27.6	22.9	11.4	3.6
Gem105, carboplatin concentration 10 nM	–	102	90.8	94.9	105	72.5
Gem105, carboplatin concentration 100 nM	–	102	82	100	89.4	79.4
Gem105, carboplatin concentration 1000 nM	–	110	89.4	109	89.2	87.6
Gem105, carboplatin concentration 10000 nM	91.9	97.7	83.8	92.5	80	81.6
Gem105, carboplatin concentration 100000 nM	38.7	41.1	51.4	42.1	30.3	27.6

O=C(O)C1(C(=O)O)CCC1.[NH2-].[NH2-].[Pt+2] [Carboplatin] + O=C(CCCCCCC(=O)Nc1ccccc1)NO [Vorinostat]
cell viability [%]
Details	partner drug concentration 0 nM	partner drug concentration 1 nM	partner drug concentration 10 nM	partner drug concentration 100 nM	partner drug concentration 1000 nM	partner drug concentration 10000 nM
Gem015, carboplatin concentration 10 nM	85.7	100	97.5	97.6	76.3	35.6
Gem015, carboplatin concentration 100 nM	97.2	94.2	92.8	93.8	79.3	37.7
Gem015, carboplatin concentration 1000 nM	88.1	96.2	91.6	91.3	71.6	36.2
Gem015, carboplatin concentration 10000 nM	91.1	84.9	97.1	95.6	77.2	36.1
Gem015, carboplatin concentration 100000 nM	61.2	71.2	77.1	74.6	63.5	32.3
Gem031, carboplatin concentration 10 nM	87.9	97.2	94	90.4	85.1	89.4
Gem031, carboplatin concentration 100 nM	110	97.1	101	95.1	92.6	98.7
Gem031, carboplatin concentration 1000 nM	88	96.9	104	100	93.3	64.1
Gem031, carboplatin concentration 10000 nM	79.2	97.2	90.6	92.2	78.4	38.7
Gem031, carboplatin concentration 100000 nM	26.3	31.4	30.1	22.9	16.9	14.6
Gem105, carboplatin concentration 10 nM	105	82.6	99.6	94.3	86.4	33.3
Gem105, carboplatin concentration 100 nM	103	90.7	96.2	93.6	84.9	34.5
Gem105, carboplatin concentration 1000 nM	89.2	102	93.5	112	84.8	39.9
Gem105, carboplatin concentration 10000 nM	91.9	105	93.4	100	79.4	36
Gem105, carboplatin concentration 100000 nM	38.7	52.6	54	53.8	31.9	10.5

From the supplement of paper PMC12420376
